From patent US9029325B2, “Amylin analogues and pharmaceutical compositions thereof” (Novo Nordisk A/S, priority 2011, dated 2015)
Like-named read-outs stand apart in the source and are kept apart here. Starred links: 1 amine or outer side, 2 acyl side, 3 side chain; linkers in the order of their positions; H or OH if unused. Positions of bridges follow the written chain, without caps; N, C: chain ends. Residues, ends and D or L forms follow the SMILES beside them. *: point of attachment. C20 diacid = O=C(O)CCCCCCCCCCCCCCCCCCC(=O)*; γGlu = O=C(O)[C@H](CCC(=O)[*:2])N[*:1]

How the values were obtained:
[1] = Assay (I) efficacy testing on appetite (food intake), ad libitum fed rat model; assay type: in vivo, Sprague Dawley (SD) rats; conditions: 3 nmol/kg
Method in brief: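 Ad libitum fed SD rats (200-250 g) on a reversed light cycle, housed individually, received a single 0.01-3 mg/kg dose ip, po or sc just before lights-off. Individual food intake recorded hourly for 7 h, then at 24 h and sometimes 48 h, versus vehicle; Grubbs outliers excluded.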

[2] = Assay (III) ThT fibrillation assay for physical stability; assay type: physicochemical; conditions: for Th T pH 4.0 lag time (h): 37° C., orbital shaking 960 rpm; for ThT pH 4.0 lag time: Table 9
Method in brief: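 Freshly prepared samples, pH adjusted with NaOH and HClO4 or HCl, received ThT at 1 μM final and were incubated at 37° C with orbital shaking at 960 rpm. Fluorescence (ex 444 nm, em 485 nm) was read every 20 minutes; […], with polypeptide concentration by reverse HPLC before and after.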

[3] = test system: amylin receptor versus calcitonin receptor; conditions: cited from earlier work

Th T pH 4.0 lag time (h) [2] | ThT pH 4.0 lag time [2] | Compound | Food intake reduction 0-24 h 3 nmol/kg (%) [1] | Food intake reduction 24-48 h 3 nmol/kg (%) [1] | times more potent on the amylin receptor than on the calcitonin receptor [3] | times more potent on the amylin receptor than on the calcitonin receptor ([3]; listed as Pramlintide)
>45 h | >45 hr | CC[C@H](C)[C@H](NC(=O)[C@@H]1CCCN1C(=O)CNC(=O)[C@H](Cc1ccccc1)NC(=O)[C@H](CC(N)=O)NC(=O)[C@H](CC(N)=O)NC(=O)[C@H](CO)NC(=O)[C@H](CO)NC(=O)[C@H](Cc1c[nH]cn1)NC(=O)[C@H](Cc1c[nH]cn1)NC(=O)[C@H](CC(C)C)NC(=O)[C@H](Cc1ccccc1)NC(=O)[C@H](CCC(=O)O)NC(=O)[C@H](C)NC(=O)[C@H](CC(C)C)NC(=O)[C@H](CCCNC(=N)N)NC(=O)[C@H](CCC(N)=O)NC(=O)[C@@H](NC(=O)[C@H](C)NC(=O)[C@@H]1CSSC[C@H](NC(=O)[C@H](CCCCN)NC(=O)CC[C@H](NC(=O)CCCCCCCCCCCCCCCCCCC(=O)O)C(=O)O)C(=O)N[C@@H](CC(N)=O)C(=O)N[C@@H]([C@@H](C)O)C(=O)N[C@@H](C)C(=O)N[C@@H]([C@@H](C)O)C(=O)N1)[C@@H](C)O)C(=O)N[C@@H](CC(C)C)C(=O)N1CCC[C@H]1C(=O)N1CCC[C@H]1C(=O)N[C@H](C(=O)N[C@@H](CC(N)=O)C(=O)N[C@H](C(=O)NCC(=O)N[C@@H](CO)C(=O)N[C@@H](CC(N)=O)C(=O)N[C@H](C(=O)N1CCC[C@H]1C(N)=O)[C@@H](C)O)C(C)C)[C@@H](C)O [Example 52, N-alpha-[(S)-4-Carboxy-4-(19-carboxynonadecanoylamino)butyryl]-[Glu14, His17, Pro37]-pramlintide] ({C20 diacid-γGlu}-KCNTATCATQRLAEFLHHSSNNFGPILPPTNVGSNTP-NH2; disulfide 2-7) | 62% | 74% |  | 
>45 h | >45 hr | CC[C@H](C)[C@H](NC(=O)[C@@H]1CCCN1C(=O)CNC(=O)[C@H](Cc1ccccc1)NC(=O)[C@H](CC(N)=O)NC(=O)[C@H](CC(N)=O)NC(=O)[C@H](CO)NC(=O)[C@H](CO)NC(=O)[C@H](Cc1c[nH]cn1)NC(=O)[C@H](Cc1c[nH]cn1)NC(=O)[C@H](CC(C)C)NC(=O)[C@H](Cc1ccccc1)NC(=O)[C@H](CCC(=O)O)NC(=O)[C@H](C)NC(=O)[C@H](CC(C)C)NC(=O)[C@H](CCCNC(=N)N)NC(=O)[C@H](CCC(N)=O)NC(=O)[C@@H](NC(=O)[C@H](C)NC(=O)[C@@H]1CSSC[C@H](NC(=O)[C@H](CCCNC(=N)N)NC(=O)CC[C@H](NC(=O)CCCCCCCCCCCCCCCCCCC(=O)O)C(=O)O)C(=O)N[C@@H](CC(N)=O)C(=O)N[C@@H]([C@@H](C)O)C(=O)N[C@@H](C)C(=O)N[C@@H]([C@@H](C)O)C(=O)N1)[C@@H](C)O)C(=O)N[C@@H](CC(C)C)C(=O)N1CCC[C@H]1C(=O)N1CCC[C@H]1C(=O)N[C@H](C(=O)N[C@@H](CC(N)=O)C(=O)N[C@H](C(=O)NCC(=O)N[C@@H](CO)C(=O)N[C@@H](CC(N)=O)C(=O)N[C@H](C(=O)N1CCC[C@H]1C(N)=O)[C@@H](C)O)C(C)C)[C@@H](C)O [Example 96, N-alpha-[(S)-4-Carboxy-4-(19-carboxynonadecanoylamino)butyryl]-[Arg1, Glu14, His17, Pro37]-pramlintide] ({C20 diacid-γGlu}-RCNTATCATQRLAEFLHHSSNNFGPILPPTNVGSNTP-NH2; disulfide 2-7) | 69% | 89% |  | 
>45 h | >45 hr | CC[C@H](C)[C@H](NC(=O)[C@@H]1CCCN1C(=O)CNC(=O)[C@H](Cc1ccccc1)NC(=O)[C@H](CC(N)=O)NC(=O)[C@H](CC(N)=O)NC(=O)[C@H](CO)NC(=O)[C@H](CO)NC(=O)[C@H](Cc1c[nH]cn1)NC(=O)[C@H](Cc1c[nH]cn1)NC(=O)[C@H](CC(C)C)NC(=O)[C@H](Cc1ccccc1)NC(=O)[C@H](CCC(=O)O)NC(=O)[C@H](C)NC(=O)[C@H](CC(C)C)NC(=O)[C@H](CCCNC(=N)N)NC(=O)[C@H](CCC(N)=O)NC(=O)[C@@H](NC(=O)[C@H](C)NC(=O)[C@@H]1CSSC[C@H](NC(=O)[C@H](CCCNC(=N)N)NC(=O)CNC(=O)CC[C@H](NC(=O)CCCCCCCCCCCCCCCCCCC(=O)O)C(=O)O)C(=O)N[C@@H](CC(N)=O)C(=O)N[C@@H]([C@@H](C)O)C(=O)N[C@@H](C)C(=O)N[C@@H]([C@@H](C)O)C(=O)N1)[C@@H](C)O)C(=O)N[C@@H](CC(C)C)C(=O)N1CCC[C@H]1C(=O)N1CCC[C@H]1C(=O)N[C@H](C(=O)N[C@@H](CC(N)=O)C(=O)N[C@H](C(=O)NCC(=O)N[C@@H](CO)C(=O)N[C@@H](CC(N)=O)C(=O)N[C@H](C(=O)N1CCC[C@H]1C(N)=O)[C@@H](C)O)C(C)C)[C@@H](C)O [Example 101, N-alpha-[(S)-4-Carboxy-4-(19-carboxynonadecanoylamino)butyryl]-Gly-[Arg1, Glu14, His17, Pro37]-pramlintide] ({C20 diacid-γGlu}-GRCNTATCATQRLAEFLHHSSNNFGPILPPTNVGSNTP-NH2; disulfide 3-8 (inferred); C-terminus assumed) | 70% | 90% |  | 

More lines, now with the values behind:

Compound | Th T pH 4.0 lag time (h) [2] | ThT pH 4.0 lag time [2] | Food intake reduction 0-24 h 3 nmol/kg (%) [1] | Food intake reduction 24-48 h 3 nmol/kg (%) [1] | times more potent on the amylin receptor than on the calcitonin receptor [3] | times more potent on the amylin receptor than on the calcitonin receptor ([3]; listed as Pramlintide)
CC[C@H](C)[C@H](NC(=O)[C@@H]1CCCN1C(=O)CNC(=O)[C@H](Cc1ccccc1)NC(=O)[C@H](CC(N)=O)NC(=O)[C@H](CC(N)=O)NC(=O)[C@H](CO)NC(=O)[C@H](CO)NC(=O)[C@H](Cc1c[nH]cn1)NC(=O)[C@H](CCCNC(=N)N)NC(=O)[C@H](CC(C)C)NC(=O)[C@H](Cc1ccccc1)NC(=O)[C@H](CCC(=O)O)NC(=O)[C@H](C)NC(=O)[C@H](CC(C)C)NC(=O)[C@H](CCCNC(=N)N)NC(=O)[C@H](CCC(N)=O)NC(=O)[C@@H](NC(=O)[C@H](C)NC(=O)[C@@H]1CSSC[C@H](NC(=O)[C@H](CCCCN)NC(=O)CC[C@H](NC(=O)CCCCCCCCCCCCCCCCCCC(=O)O)C(=O)O)C(=O)N[C@@H](CC(N)=O)C(=O)N[C@@H]([C@@H](C)O)C(=O)N[C@@H](C)C(=O)N[C@@H]([C@@H](C)O)C(=O)N1)[C@@H](C)O)C(=O)N[C@@H](CC(C)C)C(=O)N1CCC[C@H]1C(=O)N1CCC[C@H]1C(=O)N[C@H](C(=O)N[C@@H](CC(N)=O)C(=O)N[C@H](C(=O)NCC(=O)N[C@@H](CO)C(=O)N[C@@H](CC(N)=O)C(=O)N[C@H](C(=O)N1CCC[C@H]1C(N)=O)[C@@H](C)O)C(C)C)[C@@H](C)O [Example 53, N-alpha-[(S)-4-Carboxy-4-(19-carboxynonadecanoylamino)butyryl]-[Glu14, Arg17, Pro37]-pramlintide] | >45 h | >45 hr | 40% | 28% |  | 
CC[C@H](C)[C@H](NC(=O)[C@@H]1CCCN1C(=O)CNC(=O)[C@H](Cc1ccccc1)NC(=O)[C@H](CC(N)=O)NC(=O)[C@H](CC(N)=O)NC(=O)[C@H](CO)NC(=O)[C@H](CO)NC(=O)[C@H](Cc1c[nH]cn1)NC(=O)[C@H](CCCNC(=N)N)NC(=O)[C@H](CC(C)C)NC(=O)[C@H](Cc1ccccc1)NC(=O)[C@H](CCC(=O)O)NC(=O)[C@H](C)NC(=O)[C@H](CC(C)C)NC(=O)[C@H](CCCNC(=N)N)NC(=O)[C@H](CCC(N)=O)NC(=O)[C@@H](NC(=O)[C@H](C)NC(=O)[C@@H]1CSSC[C@H](NC(=O)[C@H](Cc2c[nH]cn2)NC(=O)CNC(=O)CC[C@H](NC(=O)CCCCCCCCCCCCCCCCCCC(=O)O)C(=O)O)C(=O)N[C@@H](CC(N)=O)C(=O)N[C@@H]([C@@H](C)O)C(=O)N[C@@H](C)C(=O)N[C@@H]([C@@H](C)O)C(=O)N1)[C@@H](C)O)C(=O)N[C@@H](CC(C)C)C(=O)N1CCC[C@H]1C(=O)N1CCC[C@H]1C(=O)N[C@H](C(=O)N[C@@H](CC(N)=O)C(=O)N[C@H](C(=O)NCC(=O)N[C@@H](CO)C(=O)N[C@@H](CC(N)=O)C(=O)N[C@H](C(=O)N1CCC[C@H]1C(N)=O)[C@@H](C)O)C(C)C)[C@@H](C)O [Example 89, N-alpha-[(S)-4-Carboxy-4-(19-carboxynonadecanoylamino)butyryl]-Gly-[His1, Glu14, Arg17, Pro37]-pramlintide] ({C20 diacid-γGlu}-GHCNTATCATQRLAEFLRHSSNNFGPILPPTNVGSNTP-NH2; disulfide 3-8) | >45 h | >45 hr | 42% | 23% |  | 
pramlintide |  |  |  |  | 14 times | approximately 14 times
